Source: patent publication US20240360151A1 (SANOFI, priority 2023, published 2024)

Target: T1, NLRP3 inflammasome (Homo sapiens, UniProt Q96P20)
T1 construct: endogenous in cells; host or cells: THP-1 monocytic cells
Experiment: IL-1β secretion assay (NLRP3 IC50) in LPS-primed, nigericin-activated THP-1 cells, HTRF
Type: cell-based
Conditions: monocytic THP-1 cells; LPS 10 ng/mL 3 h priming, then compound + nigericin 10 μM 2 h; relative IC50, 10 concentrations, geometric mean
Protocol: Monocytic THP-1 cells were maintained in RPMI 1640 media (Gibco 21875)+10% FBS, (Gibco 10500)+1% penicillin/streptomycin (Gibco 15140-122). Cells were then plated at 40,000 cells per well in 384-well cell culture plates (CoRNning 3542) and maintained with RPMI1640 (Gibco 11835)+5% FBS (Gibco 10500). Activation of the NLRP3 inflammasome requires both an NF-kB-dependent priming step and the addition of a NLRP3 activator. The priming step was induced by LPS (10 ng/mL, InvivoGen ref tlrl-3pelps) for 3 h at 37° C., then compound, in a 1:3 serial dilution series in DMSO (final concentration DMSO 0.1%), and the activator nigericin (Sigma Aldrich, ref: SML1779) 10 μM (final concentration) were added to the cells and co-incubated for 2 hours. 16 μL supernatant was removed, and IL-1β levels were monitored using an HTRF assay (Human IL1b Kits HTRF Cisbio ref: 62HILBPEH) according to manufacturers' instructions.
Data were expressed as percentage of inhibition (I %) as compared to a maximum signal control containing no small molecule (I %=0%) according to the formula: 1%=(1−((Sample−Min))/((Max−Min)))×100, where: • Sample: Signal obtained in the presence of each compound tested, • Max: Maximum signal in the absence of compound added, • Min: Minimum or background signal obtained in the absence of activation signal.
Relative IC50 (IC50 rel) were obtained from a dose response curve with 10 concentrations. Final IC50 rels are expressed as the geometric mean.
Relative IC50 values were estimated with Biost@t-SPEED v2.4 internal software based on SAS system using the 4-parameter logistic model according to Ratkovsky and Reedy (D. A. Ratkovsky, T. J. Reedy, Choosing near-linear parameters in the four parameters logistic model radioligands and related assays. Biometrics, 42 (1986), 575-582): Y=A+C/((1+exp(−B*(log(X)−M)))), where: • A: Lower asymptote (BOTTOM), • A+C: Upper asymptote (TOP), • M: the logarithm of the concentration estimated at the inflexion point (the logarithm of the relative IC50), • B: Slope at the inflexion point of the curve.

T1 sequence (Q96P20 whole entry): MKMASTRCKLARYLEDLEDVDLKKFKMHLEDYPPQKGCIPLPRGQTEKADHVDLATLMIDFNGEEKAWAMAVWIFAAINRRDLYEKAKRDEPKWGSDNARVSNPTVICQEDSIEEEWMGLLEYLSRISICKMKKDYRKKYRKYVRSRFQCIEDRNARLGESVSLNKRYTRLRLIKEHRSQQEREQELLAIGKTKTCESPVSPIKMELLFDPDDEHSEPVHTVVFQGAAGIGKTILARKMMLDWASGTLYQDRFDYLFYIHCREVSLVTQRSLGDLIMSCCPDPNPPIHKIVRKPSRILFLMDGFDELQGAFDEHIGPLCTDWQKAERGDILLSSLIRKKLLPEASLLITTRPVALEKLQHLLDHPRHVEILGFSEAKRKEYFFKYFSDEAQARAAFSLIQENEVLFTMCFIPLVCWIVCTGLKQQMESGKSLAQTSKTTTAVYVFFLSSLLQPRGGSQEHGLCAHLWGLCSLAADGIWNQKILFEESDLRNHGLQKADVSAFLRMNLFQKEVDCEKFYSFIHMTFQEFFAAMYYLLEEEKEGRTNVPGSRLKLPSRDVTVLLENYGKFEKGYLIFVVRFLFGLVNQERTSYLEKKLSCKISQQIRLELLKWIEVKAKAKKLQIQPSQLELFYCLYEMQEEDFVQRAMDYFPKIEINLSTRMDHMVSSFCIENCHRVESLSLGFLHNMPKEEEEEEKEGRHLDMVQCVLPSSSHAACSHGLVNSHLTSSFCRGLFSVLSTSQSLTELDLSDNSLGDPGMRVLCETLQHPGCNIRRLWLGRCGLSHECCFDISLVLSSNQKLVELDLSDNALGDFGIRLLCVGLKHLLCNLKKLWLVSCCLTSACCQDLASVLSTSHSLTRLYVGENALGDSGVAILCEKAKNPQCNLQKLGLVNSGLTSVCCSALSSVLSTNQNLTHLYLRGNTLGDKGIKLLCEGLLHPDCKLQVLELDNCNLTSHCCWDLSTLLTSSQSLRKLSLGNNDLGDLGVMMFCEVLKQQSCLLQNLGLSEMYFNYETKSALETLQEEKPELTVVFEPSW

Row | IC50 | SMILES
1 | < 0.0003 µM | CCc1cc(C)cc(O)c1-c1ccc(N2CC[C@@H]3CCN(C)C[C@@H]32)nn1 (single isomer, unassigned) [Example 477]
2 | 0.172 µM | CN1CC[C@@H]2CCN(c3cc(C(F)F)c(-c4ccc(C(F)(F)F)cc4O)nn3)[C@@H]2C1 (single isomer, unassigned) [Example 482]
3 | 0.001 µM | CN1CC[C@H]2CCN(c3cc(C(F)F)c(-c4ccc(C(F)(F)F)cc4O)nn3)[C@H]2C1 (single isomer, unassigned) [Example 483]
4 | 0.045 µM | CCN1CC[C@@H]2CCN(c3cc(C(F)F)c(-c4ccc(C(F)(F)F)cc4O)nn3)[C@@H]2C1 (single isomer, unassigned) [Example 485]
5 | < 0.0003 µM | CCN1CC[C@H]2CCN(c3cc(C(F)F)c(-c4ccc(C(F)(F)F)cc4O)nn3)[C@H]2C1 (single isomer, unassigned) [Example 486]
6 | 0.001 µM | Cc1cc(C)c(-c2cc(C(F)F)c(N3CC[C@H]4CCN(C)C[C@H]43)nn2)c(O)c1 (single isomer, unassigned) [Example 487]
7 | 0.912 µM | Cc1cc(C)c(-c2cc(C(F)F)c(N3CC[C@@H]4CCN(C)C[C@@H]43)nn2)c(O)c1 (single isomer, unassigned) [Example 488]
8 | 0.232 µM | CCN1CC[C@@H]2CCN(c3cc(C(F)F)c(-c4ccc(C)cc4O)nn3)[C@@H]2C1 (single isomer, unassigned) [Example 489]
9 | 0.001 µM | CCN1CC[C@H]2CCN(c3cc(C(F)F)c(-c4ccc(C)cc4O)nn3)[C@H]2C1 (single isomer, unassigned) [Example 490]
10 | 0.185 µM | CCc1cc(C(F)(F)F)cc(O)c1-c1ccc(N2CC[C@H]3CCN(C)C[C@H]32)nn1 (single isomer, unassigned) [Example 491]
11 | 0.003 µM | CCc1cc(C(F)(F)F)cc(O)c1-c1ccc(N2CC[C@@H]3CCN(C)C[C@@H]32)nn1 (single isomer, unassigned) [Example 492]
12 | 0.171 µM | CCc1cc(Cl)cc(O)c1-c1ccc(N2CC[C@H]3CCN(C)C[C@H]32)nn1 (single isomer, unassigned) [Example 493]
13 | 0.001 µM | CCc1cc(Cl)cc(O)c1-c1ccc(N2CC[C@@H]3CCN(C)C[C@@H]32)nn1 (single isomer, unassigned) [Example 494]
14 | 0.546 µM | CCN1CC[C@H]2CCN(c3ccc(-c4c(C)cc(Cl)cc4O)nn3)[C@H]2C1 (single isomer, unassigned) [Example 496]
15 | 0.0004 µM | CCN1CC[C@H]2CCN(c3ccc(-c4c(C)cc(Cl)cc4O)nn3)[C@H]2C1 (single isomer, unassigned) [Example 497]
16 | 0.951 µM | CCN1CC[C@H]2CCN(c3ccc(-c4c(C)cccc4O)nn3)[C@H]2C1 (single isomer, unassigned) [Example 498]
17 | 0.003 µM | CCN1CC[C@@H]2CCN(c3ccc(-c4c(C)cccc4O)nn3)[C@@H]2C1 (single isomer, unassigned) [Example 499]
18 | 0.062 µM | CN1CC[C@H]2CCN(c3cc(C(F)F)c(-c4ccc(Cl)cc4O)nn3)[C@H]2C1 (single isomer, unassigned) [Example 500]
19 | < 0.0003 µM | CN1CC[C@@H]2CCN(c3cc(C(F)F)c(-c4ccc(Cl)cc4O)nn3)[C@@H]2C1 (single isomer, unassigned) [Example 501]

Row | IC50 | SMILES
20 | 0.347 µM | Cc1cc(Cl)cc(O)c1-c1ccc(N2CC[C@@H]3CCN(C)C[C@@H]32)nn1 (single isomer, unassigned) [Example 502]
21 | 0.0005 µM | Cc1cc(Cl)cc(O)c1-c1ccc(N2CC[C@H]3CCN(C)C[C@H]32)nn1 (single isomer, unassigned) [Example 503]
22 | 1.08 µM | CCN1CC[C@H]2CCN(c3ccc(-c4c(C)cc(C)cc4O)nn3)[C@H]2C1 (single isomer, unassigned) [Example 504]
23 | 0.0004 µM | CCN1CC[C@@H]2CCN(c3ccc(-c4c(C)cc(C)cc4O)nn3)[C@@H]2C1 (single isomer, unassigned) [Example 505]
24 | 0.135 µM | Cc1ccc(-c2nnc(N3CC[C@@H]4CCN(C)C[C@@H]43)cc2C(F)F)c(O)c1 (single isomer, unassigned) [Example 506]
25 | 0.001 µM | Cc1ccc(-c2nnc(N3CC[C@H]4CCN(C)C[C@H]43)cc2C(F)F)c(O)c1 (single isomer, unassigned) [Example 507]
26 | 0.28 µM | CC(=O)N1CC[C@@H]2CCN(c3cc(C(F)F)c(-c4ccc(C(F)(F)F)cc4O)nn3)[C@@H]2C1 (single isomer, unassigned) [Example 510]
27 | 0.571 µM | CC(=O)N1CC[C@H]2CCN(c3cc(C(F)F)c(-c4ccc(C(F)(F)F)cc4O)nn3)[C@H]2C1 (single isomer, unassigned) [Example 511]
28 | 0.276 µM | CC(=O)N1CC[C@@H]2CCN(c3nnc(-c4c(C)cc(C)cc4O)cc3C(F)F)[C@@H]2C1 (single isomer, unassigned) [Example 512]
29 | 1.77 µM | CC(=O)N1CC[C@H]2CCN(c3nnc(-c4c(C)cc(C)cc4O)cc3C(F)F)[C@H]2C1 (single isomer, unassigned) [Example 513]
30 | 1.92 µM | Cc1cc(C)c(-c2ccc(N3CC4(CC[C@@H](O)C4)C3)nn2)c(O)c1 (stereo in doubt) [Example 94, 2-[6-(2-hydroxy-4,6-dimethyl-phenyl)pyridazin-3-yl]-2-azaspiro[3.4]octan-6-ol]
31 | 0.188 µM | Cc1cc(C(F)(F)F)cc(O)c1-c1ccc(N2CCO[C@H](CO)C2=O)nn1 (stereo in doubt) [Example 368, 2-(hydroxymethyl)-4-[6-[2-hydroxy-6-methyl-4-(trifluoromethyl)phenyl]pyridazin-3-yl]morpholin-3-one]
32 | 1.96 µM | Cc1cc(C)c(-c2ccc(N3CCC(C#N)CC3)nn2)c(O)c1 [Example 2, 1-[6-(2-hydroxy-4,6-dimethyl-phenyl)pyridazin-3-yl]piperidine-4-carbonitrile]
33 | 2.03 µM | Cc1cc(C)c(-c2ccc(N3CCC4(CC3)CC(O)C4)nn2)c(O)c1 [Example 3, 7-[6-(2-hydroxy-4,6-dimethyl-phenyl)pyridazin-3-yl]-7-azaspiro[3.5]nonan-2-ol]
34 | 5.47 µM | Cc1cc(C)c(-c2ccc(N3CCC4(CC3)CNC4)nn2)c(O)c1 [Example 7, 2-[6-(2,7-diazaspiro[3.5]nonan-7-yl)pyridazin-3-yl]-3,5-dimethyl-phenol; 2,2,2-trifluoroacetic acid]
35 | 1.48 µM | NCC1CCN(c2ccc(-c3c(O)cc(Cl)cc3Cl)nn2)CC1 [Example 19, 2-[6-[4-(aminomethyl)-1-piperidyl]pyridazin-3-yl]-3,5-dichloro-phenol]
36 | 0.638 µM | Cc1cc(C(F)(F)F)cc(O)c1-c1ccc(N2CCOC(CN(C)C)C2)nn1 (stereo not shown) [Example 24, 2-[6-[2-[(dimethylamino)methyl]morpholin-4-yl]pyridazin-3-yl]-3-methyl-5-(trifluoromethyl)phenol]
37 | 1.26 µM | Cc1cc(C(F)(F)F)cc(O)c1-c1ccc(N2CCO[C@H](CN(C)C)C2)nn1 [Example 27, 2-[6-[(2R)-2-[(dimethylamino)methyl]morpholin-4-yl]pyridazin-3-yl]-3-methyl-5-(trifluoromethyl)phenol]
